Legend:
[1] = system: cold allodynia in Bennett animals; assay: Bennett model (chronic constriction injury), cold allodynia on 4° C. cold metal plate; format: in vivo, rat; conditions: for ED50: Rattus norvegicus
Experimental: The effectiveness in treating neuropathic pain was investigated in the Bennett model (chronic constriction injury; Bennett and Xie, 1988, Pain 33: 87-107).
(§1) Sprague-Dawley rats weighing 140-160 g are provided with four loose ligatures of the right sciatic nerve under nembutal narcosis. The animals develop a hypersensitivity in the paw innervated by the damaged nerve, which after a healing phase of one week is quantified over about four weeks by means of a 4° C. cold metal plate (cold allodynia). The animals are observed for two minutes on this plate and the number of retractive movements of the damaged paw are measured. The effect of the substance is determined with reference to the base value before application of the substance, at four different times over a period of one hour(15, 30, 45 and 60 minutes after application) and the resultant area under the curve (AUD) as well as the inhibition of cold allodynia at the individual measurement points is expressed in percent effect with reference to the vehicle control (AUD) and to the initial value (individual measurement points). The cohort size is n=10.

[2] = system: tactile allodynia in Chung animals; assay: Chung model (spinal nerve ligature), tactile allodynia, electronic von Frey; format: in vivo; conditions: Rattus norvegicus, ip, 0.5 h; rats, i.p., 30 minutes after administration
Experimental: Spinal nerve ligatures according to Kim & Chung (1992 Pain 50, 355-363) were applied to the left L5/L6 spinal nerves of male Spraque-Dawley rats. Four to six days after the operation the tactile threshold baseline (withdrawal threshold) was measured on the ipsilateral and contralateral rear paw by an electronic von Frey anaesthesiometer (IITC Life Science, USA). After the test and measurement of the baseline, morphine, gabapentin and some of the aforementioned compounds used according to the invention were administered. The tactile withdrawal thresholds were measured 30 minutes after the administration. The results are expressed as ED50 and % maximal possible effect (% MPE) on the ipsilateral side, in which the baseline is taken as 0% and the withdrawal threshold of a control group is taken as 100% MPE.

[3] = system: cold allodynia in morphine-tolerant Bennett animals; assay: Bennett model cold allodynia in morphine-tolerant animals; format: in vivo, rat
Experimental: as §1
The underlying question is the action of a test substance having a presumably opioid action mechanism in patients who are tolerant or treatment-resistant to morphine. […] The action of test substances in naive (non-morphine-tolerant) animals and morphine-tolerant animals is compared in Table 4. […] Morphine [10 mg/kg i.p.], Compound 9 [10 and 21.5 mg/kg i.p.], Compound 10 [0.46 and 1 mg/kg i.p.], Compound 4 [21.5 mg/kg i.p.] and Compound 11 [21.5 mg/kg i.p.] were tested analogously to Example 1.

[4] = system: neuropathic pain; assay: Tests of substances together with naloxone in treating neuropathic pain; format: in vivo
[5] = system: mechanical hyperalgesia in diabetic animals; assay: Streptozotocin diabetic neuropathy, mechanical hyperalgesia (Randall and Sellito); format: in vivo, rat; conditions: diabetic rats; for ED50: Rattus norvegicus, ip, i.p., read-out: Mechanical hyperalgesia ED50 (95% confidence region)
Experimental: Male Sprague-Dawley rats weighing 160-180 g received an intra-peritoneal injection of streptozotocin (75 mg/kg body weight) dissolved in pH 4.6 citrate buffer. One week later diabetic animals were identified by measuring the blood glucose level, and those with a blood glucose level of ≧17 mM were included in the study. Three and four weeks after administration of streptozotocin the mechanical reaction threshold was measured in diabetic animals by the method of Randall and Sellito (1957 Arch. Int. Pharmacody. […]:409-419) before (pre-test) and at various times after administration of the test substance or vehicle (post-test). […] The maximum pressure exerted on the rear paw was 250 g. The end point of the mechanical reaction threshold in grams was determined based on the reaction of the animal (withdrawal of the rear paw, vocalisation or evasive reaction). The size of the cohort in the individual dose stages was n=10. The maximum possible response in percent (% MPE=% of maximum possible effect) was calculated according to the formula:
% MPE=(post-test−pre-test)/(250−pre-test)×100.
ED50 values (dose at which 50% maximum inhibition occurred) were determined by regression analysis from the % MPE values at the time of the maximum effect.

`CC[C@](O)(c1cccc(OC)c1)[C@H](C)CN(C)C` (racemic) [Compound 1, (2RS,3RS)-1-dimethylamino-3-(3-methoxyphenyl)-2-methylpentan-3-ol] showed an ED50 ([1]; ip, rats) of 11.1 mg/kg and an ED50 [2] of 10.1 mg/kg.
For `C[C@H](CN(C)C)[C@@](C)(O)c1cccc(O)c1` (racemic) [Compound 5, (1RS,2RS)-3-(3-dimethylamino-1-hydroxy-1,2-dimethylpropyl)-phenol], the ED50 ([1]; ip, rats) was 15 mg/kg.
With `CC[C@](O)(c1cccc(C(F)F)c1)[C@H](C)CN(C)C` (racemic) [Compound 8, (2RS,3RS)-3-(difluoromethylphenyl)-1-dimethylamino-2-methylpentan-3-ol] the “Cold allodynia ED50” value ([1]; rats, i.p.) was 17.1 mg/kg.
`CC[C@@](O)(c1cccc(OC)c1)[C@@H](C)CN(C)C` [Compound 2, (2S,3S)-1-dimethylamino-3-(3-methoxyphenyl)-2-methylpentan-3-ol] showed an ED50 ([1]; ip, rats) of 26 mg/kg.
Compound `CC[C@](O)(c1cccc(OC)c1)[C@H](C)CN(C)C` [Compound 3, (2R,3R)-1-dimethylamino-3-(3-methoxyphenyl)-2-methylpentan-3-ol] has an ED50 ([1]; ip, rats) of 9.2 mg/kg.
Compound `C[C@@H](CN(C)C)[C@](C)(O)c1cccc(O)c1` [Compound 6, (1S,2S)-3-(3-dimethylamino-1-hydroxy-1,2-dimethylpropyl)phenol] has an ED50 ([1]; ip, rats) of 32.6 mg/kg and an ED50 [2] of 4.65 mg/kg.
Compound `C[C@H](CN(C)C)[C@@](C)(O)c1cccc(O)c1` [Compound 7, (1R,2R)-3-(3-dimethylamino-1-hydroxy-1,2-dimethylpropyl)phenol] has an ED50 ([1]; ip, rats) of 11.1 mg/kg.
In the case of `CC[C@H](c1cccc(O)c1)[C@H](C)CN(C)C` [Compound 10, (1S,2S)-3-(3-dimethylamino-1-ethyl-2-methylpropyl)phenol], the “Cold allodynia (% AUD) Morphine-tolerant animals” value ([3]; 0.46 mg/kg i.p.) is reported as 22.9 % AUD, the “Cold allodynia (% AUD) Morphine-tolerant animals” value ([3]; 1 mg/kg i.p.) is reported as 39.9 % AUD and the “Cold allodynia (% AUD) Morphine-tolerant animals” value ([3]; 2.15 mg/kg i.p.) is reported as 13.0 % AUD. For the same compound, the “Cold allodynia (% AUD) Naïve animals” value ([1]; 0.46 mg/kg i.p.) was 29.0 % AUD, the “Cold allodynia (% AUD) Naïve animals” value ([1]; 1 mg/kg i.p.) was 42.7 % AUD and the “Cold allodynia (% AUD) Naïve animals” value ([1]; 2.15 mg/kg i.p.) was 59.2 % AUD. The ED50 ([1]; ip, rats) was 1.2 mg/kg, the “effectiveness in treating neuropathic pain with naloxone” value [4] was “effective” and the ED50 [2] was 1.5 mg/kg.
`CC(CN(C)C)=C(C)c1cccc(O)c1` [Compound 14, 3-(3-dimethylamino-1,2-dimethylpropenyl)-phenol] showed an ED50 ([1]; ip, rats) of 3.6 mg/kg.
In the case of `NCC1(CC(=O)O)CCCCC1` [Gabapentin, reference compound], the ED50 ([1]; po, rats) is reported as 214 mg/kg, the ED50 [2] is reported as 92.6 mg/kg and the ED50 [5] is reported as 225 mg/kg. The “Mechanical hyperalgesia Maximum effect in % MPE” value ([5]; 464 mg/kg i.p.) was 80% (464 mg/kg) % MPE.
With `CN1CC[C@]23c4c5ccc(O)c4O[C@H]2[C@@H](O)C=C[C@H]3[C@H]1C5` [Morphine, reference compound] the “Cold allodynia (% AUD) Morphine-tolerant animals” value ([3]; 10 mg/kg i.p.) was −22.0 % AUD, the “anti-allodynic action (cold allodynia) in morphine-tolerant animals” value ([3]; i.p.) was “no longer exhibits any effect” and the “Cold allodynia (% AUD) Naïve animals” value ([1]; 10 mg/kg i.p.) was 78.6 % AUD. The ED50 ([1]; ip, rats) was 7.1 mg/kg, the “effectiveness in treating neuropathic pain with naloxone” value [4] was “effective” and the ED50 [2] was 4.6 mg/kg. For the same compound, the ED50 [5] was 3 mg/kg and the “Mechanical hyperalgesia Maximum effect in % MPE” value ([5]; 10 mg/kg i.p.) was 89% (10 mg/kg) % MPE.
`COc1cccc(C2(O)CCCCC2CN(C)C)c1` (stereo not drawn) [Tramadol] was tested, and the ED50 [5] was 9.2 mg/kg and the “Mechanical hyperalgesia Maximum effect in % MPE” value ([5]; 21.5 mg/kg i.p.) was 86% (21.5 mg/kg) % MPE.

Source: patent US20080269326A1, “Use of 1-Phenyl-3-Dimethylamino-propane Compounds for Treating Neuropathic Pain” (GRUENENTHAL GmbH, priority 2007, published 2008)
